Laboratory results as given in article PMC8439242, “Pharmacokinetic study on the interaction between pachymic acid and bavachin and its potential mechanism” (Pharmaceutical Biology, 2021).

Test system: T1, CYP2C9
T1 construct: gene Cyp2c11; 'CYP2C9' is the human name, rat has no CYP2C9, rat Cyp2c forms turn over the diclofenac probe
Experiment: diclofenac probe turnover in rat liver microsomes, LC-MS/MS
Format: biochemical
Conditions: 50 μM diclofenac; 0.5 mg/mL microsomal protein; 30 min incubation; 0-100 μM inhibitor

C=C(CC[C@@H](C(=O)O)[C@H]1[C@H](O)C[C@@]2(C)C3=C(CC[C@]12C)[C@@]1(C)CC[C@H](OC(C)=O)C(C)(C)[C@@H]1CC3)C(C)C [pachymic acid]
IC50: 21.2 µM
